From PMC6254723, “Synthesis and Pharmacological Screening of Several Aroyl and Heteroaroyl Selenylacetic Acid Derivatives as Cytotoxic and Antiproliferative Agents” (Molecules, 2009)
Where two headings read alike, the source gives them in different places.

Tests used:
[1] = system: HTB-54; assay: MTT cytotoxicity assay (NCI) in HTB-54; assay type: cell-based, human; details: 72 h
Experimental: (§1) In order to investigate the effect of the active compounds in more detail, we examined the activity on proliferation in other cancer cell lines. […] Tests were carried out in the Department of Health Science, Public University of Navarra against a panel of four human tumour cell lines: lung (HTB-54), colon (HT-29), leukaemia (CCRF-CEM) and breast adenocarcinoma (MCF-7). Cytotoxicity assays were performed based on the reactivity of MTT [3-(4,5-dimethylthiazol-2-yl)-2,5-diphenyl-tetrazolium bromide], as described by NCI [39]. […] Doxorubicin was used as a control. As guidance with regard to selectivity, all of the compounds were further examined for toxicity in a mammary gland cell culture derived from non-malignant cells (184B5). Drug concentrations ranged from 0.01 to 100 μM.
(§2) The cytotoxic effects of each substance were tested at five different doses between 0.01 and 100 μM. Each substance was initially dissolved in DMSO at a concentration of 0.1 M, and serial dilutions were prepared using culture medium. The plates with cells from the different lines, to which medium containing the substance under test were added, were incubated for 72 h at 37 °C in a humidified atmosphere containing 5% CO2. European Collection of Cell Cultures (ECACC) or American Type Culture Collection (ATCC) provided human tumour cell lines. Four cell lines were used: one human lymphocytic leukemia (CCRF-CEM) and three human solid tumours, one colon carcinoma (HT-29), one lung carcinoma (HTB-54) and one breast adenocarcinoma (MCF-7). CCRF-CEM, HT-29 and HTB-54 cells were grown in RPMI 1640 medium (Life Technologies, Carlsbad, CA, USA) supplemented with 10% foetal calf serum, 2 mM L-glutamine, 100 units/mL penicillin, 100 μg/mL streptomycin and 10 mM HEPES buffer (pH = 7.4). MCF-7 cells were grown in EMEM medium (Clonetics) supplemented with 10% foetal calf serum, 2 mM L-glutamine, 100 units/mL penicillin and 100 μg/mL streptomycin. 184B5 cells were grown Hams F-12/DMEM (50:50) supplemented as described by Li et al.. Cytotoxicity was then determined by the MTT method. […] Data were obtained from at least three independent experiments performed in quadruplicate.

[2] = system: MCF-7; assay: MTT cytotoxicity assay (NCI) in MCF-7; assay type: cell-based, human; details: 72 h
Experimental: as §1, §2

[3] = system: CCRF-CEM; assay: MTT cytotoxicity assay (NCI) in CCRF-CEM; assay type: cell-based, human; details: 72 h
Experimental: as §1, §2

[4] = system: PC-3 cell line; details: cited from earlier work
[5] = system: MCF-7; details: comparison drugs, MCF-7 by context; no reference given; cited from earlier work
[6] = dose that completely inhibits cell growth

In the case of `COc1cccc2c1C(=O)c1c(O)c3c(c(O)c1C2=O)C[C@@](O)(C(=O)CO)C[C@@H]3O[C@H]1C[C@H](N)[C@H](O)[C@H](C)O1` [Doxorub., doxorubicin, reference compound], the “TGI HTB-54” value [1, 6] is reported as 1.25 µM, the “LD50 HTB-54” value ([1]; dose that kills 50% of cells) is reported as 3.45 µM and the GI50 ([1]; Homo sapiens, HTB-54, dose that inhibits 50% of cell growth, read-out: GI50 HTB-54) is reported as under 0.01 µM. The “TGI MCF-7” value [2, 6] was over 100 µM, the “LD50 MCF-7” value ([2]; dose that kills 50% of cells) was over 100 µM and the GI50 ([2]; Homo sapiens, MCF7, dose that inhibits 50% of cell growth, read-out: GI50 MCF-7) was 0.88 µM. For the same compound, the “TGI CCRF-CEM” value [3, 6] was 0.071 µM, the “LD50 CCRF-CEM” value ([3]; dose that kills 50% of cells) was 0.29 µM and the GI50 ([3]; Homo sapiens, CCRF-CEM, dose that inhibits 50% of cell growth, read-out: GI50 CCRF-CEM) was 0.033 µM.

In the case of `COc1cc([C@@H]2c3cc4c(cc3[C@@H](O[C@@H]3O[C@@H]5CO[C@@H](C)O[C@H]5[C@H](O)[C@H]3O)[C@H]3COC(=O)[C@H]23)OCO4)cc(OC)c1O` [Etoposide], the IC50 ([4]; etoposide control) is given as 13.6 ± 2.2 µM.

In the case of `C[Se](=O)O` [MSA, methylseleninic acid], the IC50 ([4]; methylseleninic acid control) is given as 8.38 µM.

For `CC(=O)O[C@H]1C(=O)[C@@]2(C)[C@H]([C@H](OC(=O)c3ccccc3)[C@]3(O)C[C@H](OC(=O)[C@H](O)[C@@H](NC(=O)c4ccccc4)c4ccccc4)C(C)=C1C3(C)C)[C@]1(OC(C)=O)CO[C@@H]1C[C@@H]2O` [paclitaxel], the GI50 [5] is given as 0.01 µM and the TGI [5] is given as 20 ± 1.9 µM.

In the case of `CCC1=C[C@@H]2CN(C1)Cc1c([nH]c3ccccc13)[C@@](C(=O)OC)(c1cc3c(cc1OC)N(C)[C@H]1[C@@](O)(C(=O)OC)[C@H](OC(C)=O)[C@]4(CC)C=CCN5CC[C@]31[C@@H]54)C2` [vinorelbine], the GI50 [5] is listed as 5 ± 1.3 µM and the TGI [5] is listed as 100 ± 10.2 µM.
